Reference: patent publication US20120058112A1, “ANTIBODIES” (priority 2009, published 2012)

Legend:
[1] = system: lung cancer cell lines; assay: Proliferation assay (Cyquant DNA content), adherent (2D) conditions; type: cell-based; settings: adherent (2D) growth conditions
Protocol: Summary: To test the functional effect of inhibiting both EGFR & IGFIR signaling, the growth inhibition under adherent (2D) and non adherent (3D) conditions were evaluated. […] In order to test the effect of this combination under 3D non-adherent conditions, the inventors developed an ultra low attachment plate based proliferation assay.
Methods: Cells (˜3×10̂3) were seeded in adherent or non-adherent (ultra-low attachment plates; Corning) 96 well plates. […] The media and drugs were slowly replaced every 3 days and at the end of the assay (as indicated) plates were harvested and DNA content was measured using Cyquant assays as described by the manufacturer. The intrinsic growth was calculated based on the increase in DNA content from Day 1 to the end of the assay.

[2] = system: IGF1R; assay: Total IGF1R level in xenograft tumors (western blot / ELISA); type: in vivo, nu/nu mice
Protocol: (§1) Methods: Total protein (500 microgram) from xenograft samples was isolated at the end of the efficacy study (4 weeks after indicated doses). Samples from 6 independent tumors were analyzed for east treatment. The proteins were western blotted and visualized as described previously (See FIG. 2).

[3] = system: PI3K pathway (P-AKT, PS6K, PS6RP); assay: PI3K pathway western blot in xenograft tumors; design: species or system nu/nu mice; settings: following MK-0646 treatment, previous in vivo data
Protocol: as §1

[4] = system: NSCLC; settings: phase II, previously treated NSCLC patients, 2004; cited from earlier work
[5] = system: NSCLC; settings: standard chemotherapy plus EGFR inhibitor; cited from earlier work
[6] = system: NSCLC; settings: cancer no longer responding to chemotherapy; cited from earlier work
[7] = cited from earlier work
[8] = system: human mammary carcinoma which expresses EGFR; settings: mouse, in vivo; cited from earlier work
[9] = system: carcinoma which does not express the EGF receptor; settings: mouse, in vivo; cited from earlier work

Question: Which results are given for “MK-0646: humanized antibody that binds IGF-1R as well as the IR/IGF-1 hybrid receptor”?
Answer: growth inhibition [1]: no significant growth inhibition; total levels of IGF1R ([2]; compared to vehicle or Erlotinib alone, FIG. 6): able to reduce the total levels of IGF1R; IGF1R receptor level ([2]; previous in vivo data, NCI-H2122 xenograft): down regulation; P13K pathway [3]: inhibition was also observed

Question: With `C#Cc1cccc(Nc2ncnc3cc(OCCOC)c(OCCOC)cc23)c1.Cl` [Erlotinib] as the molecule, how does the “participants whose tumors responded to treatment” value [4] read?
Answer: 12%

Question: And the “outcome versus chemotherapy alone” value [5]?
Answer: did no better

Question: What about the survival versus placebo [6] of the same molecule?
Answer: about two months longer

Question: And the overall survival benefit ([7]; in vivo)?
Answer: did not help patients live any longer overall

Question: And the time to progression ([7]; placebo group 4.9 months)?
Answer: 5.1 months

Question: What about the median survival ([7]; placebo group 10.5 months) of the same molecule?
Answer: 10.6 months

Question: Which results are given for `O=CN/C=C/c1cc(O)ccc1O` [erbstatin]?
Answer: tumor growth [8]: selectively attenuates the growth; tumor growth [9]: without effect

Question: Which “outcome versus chemotherapy alone” value [5] does the source give for `COc1cc2ncnc(Nc3ccc(F)c(Cl)c3)c2cc1OCCCN1CCOCC1` [gefitinib] here?
Answer: did no better
